Experimental data from US20100256041A1, “Conjugate Molecule Compounds With Enhanced Cell Uptake Activity” (priority 2004, published 2010).
pIC50: −log10 of the molar value. Several values for one entry are separate records, joined by “and”; a condition that tells them apart may be missing. Equal values may be shown once. Read-outs that look alike come from different tables or passages of the source. Square brackets hold non-standard residues; d marks the D form.

Key:
[1] = tested on: MCF-7 (human breast adenocarcinoma cell line); assay: cells; format: cell-based
Experimental: (§1) Effects of a treatment with increasing concentrations of a conjugate molecule of the invention (D-Tat-chlorambucil) on the survival of MCF-7 (human breast adenocarcinoma cell line) and SiHa (humon cervix squamous carcinoma cell line) was determined. The effects of D-Tat-chlorambucil was compared to the conjugate L-Tat-chlorambucil and to two unconjugated anti-cancer drugs (Chlorambucil and Cisplatin). Cells of each cell line (10′000 cells per well) were plated into 96 well plates (200 μtotal volume of MEM supplemented with 10% FBS, 1% L-glutamine, 1% Na-pyruvate, 1% non-essential amino acids for MCF-7 and of MEM/Earle's supplemented with 10% FBS, 1% Na-pyruvate, 1% non-essential amino acids for SiHa cells). 6 to 10 different concentrations for each test substance were tested. The control cells are non-treated. Cells were incubated at 37° C. for 24 h before treatment with the test substance. Each experiment was carried in triplicate. Cell incubation after treatment was performed for 96 hours at 37° C. The effects of the test molecules on the survival of these cell lines (in vitro cytotoxic activity) was measured by the MTT assay. 20 μl of a 5 mg/ml 0.22 μm filtered Thiazolyl Blue Tetrazolium Bromide solution (MTT, Sigma, Ref. No. 88415) in Phosphate Buffered saline (PBS, CHUV) were added to each well and the plate was incubated for 4 hours at 37° C. The supernatant was removed and formazan crystals were dissolved with DMSO (200 μl per well). Absorbancy (OD) was measured in a microplate reader at 595 nm
(§2) (Expert Plus Reader, Asys Hitech). The IC50 (concentration of the drug inhibiting 50% of the cell growth) for the test substances was calculated using Prism software.

[2] = tested on: SiHa (human cervix squamous carcinoma cell line); assay: MTT cell survival assay, 96 h treatment (Example 2, oxaliplatin conjugates); format: cell-based; conditions: SiHa cells, Example 2, triplicate
Experimental: (§3) Effects of a treatment with increasing concentrations of a conjugate molecule of the invention (D-Tat-oxaliplatin) on the survival of MCF-7 (human breast adenocarcinoma cell line) and SiHa (human cervix squamous carcinoma cell line) was determined. The effects of D-Tat-oxaliplatin was compared to the conjugate L-Tat-oxaliplatin and to two unconjugated anti-cancer drugs (Oxaliplatin and Cisplatin). Cells of each cell line (10′000 cells per well) were plated into 96 well plates (200 μl total volume of MEM supplemented with 10% FBS, 1% L-glutamine, 1% Na-pyruvate, 1% non-essential amino acids for MCF-7 and of MEM/Earle's supplemented with 10% FBS, 1% Na-pyruvate, 1% non-essential amino acids for SiHa cells). 6 to10 different concentrations for each test substance were tested. The control cells are non-treated. Cells were incubated at 37° C. for 24 h before treatment with the test substance. Each experiment was carried in triplicate. Cell incubation after treatment was performed for 96 hours at 37° C. The effects of the test molecules on the survival of these cell lines (in vitro cytotoxic activity) was measured by the MTT assay. 20 μl of a 5 mg/ml 0.22 μm filtered Thiazolyl Blue Tetrazolium Bromide solution (MTT, Sigma, Ref. No. 88415) in Phosphate Buffered saline (PBS, CHUV) were added to each well and the plate was incubated for 4 hours at 37° C. The supernatant was removed and formazan crystals were dissolved with DMSO (200 μl per well). Absorbancy (OD) was measured in a microplate reader at 595 nm (Expert Plus Reader, Asys Hitech). The IC50 (concentration of the drug inhibiting 50% of the cell growth) for the test substances was calculated using Prism software.

[3] = tested on: MCF-7 (human breast adenocarcinoma cell line); assay: as above; format: cell-based; conditions: MCF-7 cells, Example 2, triplicate
Experimental: as §3

[4] = tested on: SiHa (humon cervix squamous carcinoma cell line); assay: cells; format: cell-based, human
Experimental: as §1, §2

IGROV-1 (ovary) = assay: MTT cell survival assay, 96 h treatment (Example 1); format: cell-based, human; conditions: IGROV-1 cells, mean of four measurements
Experimental: (§4) Effects of a treatment with increasing concentrations of a conjugate molecule of the invention (Cisplatin-D-TAT) and an unconjugated anti-cancer drug (Cisplatin) on the survival of IGROV-1 (ovary), IGROV-1/CDDP (ovary, cisplatin-resistant cell line), MCF-7 (breast), and MRC-5 (human fibroblast) (three human tumor cell lines and one human fibroblast cell line) was determined. Cells of each cell line were plated out (200 μl final volume of RPMI 1640 supplemeted with 10% FBS) in 96 well plates (5 different concentrations for each test substance, one control experiment) 5,000 to 40,000 cells per well (depending on the doubling time for each cell line) were incubated at 37° C. for 24 h before treatment with the test substances. Each experiment was carried 4×. Cell incubation after treatment was performed for 96 h at 37° C. The effects of Cisplatin-D-TAT and Cisplatin on the survival of these cell lines (in vitro cytotoxic activity) were measured by using an MTT assay. 20 μl of a 5 mg/ml solution 0.22 μl filtered tetrazolium reagent (MTT, Ref. M2003, Sigma) in Phosphate Buffered Saline (PBS, Ref BE17-517Q, Cambrex) were aded in each well. Culture plates were incubated for 4 h at 37° C. The resulting supernatant was removed and formazan crystals were dissolved with 200 μl of DMSO per well. Absorbancy (OD) was determined in each well on a single wavelength spectrophotometer plate reader at 570 nm (Multiskan, Labsystem, Helsinki, Finland) Data were collected with Genesis software (Labsystem, Helsinki, Finland). IC50 (concentration of the drug inhibiting 50% of the cell growth) for the test substances was calculated for each cell line after plotting. Control cells were treated with vehicle.

[5] = tested on: IGROV-1/CDDP (ovary, cisplatin-resistant cell line); assay: as above; format: cell-based, human; conditions: for pIC50: IGROV-1/CDDP cisplatin-resistant cells, MTT, 96 h, mean of four measurements; for resistance index of IGROV-1/CDDP compared to parental IGROV-1 cell line: approximate; for Resistance Index of IGROV-1/CDDP versus IGROV-1 cell line: ratio of IC50 IGROV-1/CDDP to IGROV-1
Experimental: as §4

MCF-7 (breast) = assay: as above; format: cell-based, human; conditions: MCF-7 cells
Experimental: as §4

MRC-5 (human fibroblast) = assay: as above; format: cell-based; conditions: MRC-5 fibroblast cells
Experimental: as §4, with “Culture plates were incubated for 4 h at 37° C. The resulting supernatant was removed and formazan crystals were dissolved with 200 μl of DMSO per well.” left out, “IC50 (concentration of the drug inhibiting 50% of the cell growth) for the test substances was calculated for each cell line after plotting. Control cells were treated with vehicle.” left out

[6] = Octanol/water partition (shake-flask, HPLC at 214 nm), water solubility; conditions: 1 mM, 24 hours equilibration at room temperature, FIG. 10

## N.N.[Cl][Pt][Cl] [Cisplatin, cis-diamindichloroplatin (II)]
[1]; MCF-7 cells, MTT, 96 h, Example 3, triplicate, read-out: IC50
  pIC50: 5.15 and 5.10
[2]
  pIC50: 4.95
[3]
  pIC50: 5.04
[4]; SiHa cells, MTT, 96 h, Example 3, triplicate, read-out: IC50
  pIC50: 5.15
IGROV-1 (ovary)
  pIC50: 5.92
[5]
  pIC50: 4.28
  resistance index of IGROV-1/CDDP compared to parental IGROV-1 cell line: approximately 40 fold
  Resistance Index of IGROV-1/CDDP versus IGROV-1 cell line: 43.6
MCF-7 (breast)
  pIC50: 5.57
MRC-5 (human fibroblast)
  pIC50: 5.31

## O=C(O)CCCc1ccc(N(CCCl)CCCl)cc1 [chlorambucil]
[1]; Homo sapiens, MCF7
  pIC50: < 3.00
[1]; Homo sapiens, MCF7, 96 h
  pIC50: < 3.00
[6]
  water solubility (compound partitioned in water, octanol/water): very low water solubility
[4]; Homo sapiens, SiHa
  pIC50: < 3.00
[4]; Homo sapiens, SiHa, 96 h
  pIC50: < 3.00

## COc1cccc2c1C(=O)c1c(O)c3c(c(O)c1C2=O)C[C@@](O)(C(=O)CO)C[C@@H]3O[C@H]1C[C@H](N)[C@H](O)[C@H](C)O1 [doxorubicine]
[6]
  water solubility (compound partitioned in water, octanol/water): almost perfectly soluble in water

## O=C(O)C(=O)O.[NH-][C@@H]1CCCC[C@H]1[NH-].[Pt+2] [oxaliplatin]
[2]
  pIC50: 4.95
[3]
  pIC50: 5.82

## CC(C)(C)NC(=O)[C@@H]1C[C@@H]2CCCC[C@@H]2CN1C[C@@H](O)[C@H](Cc1ccccc1)NC(=O)[C@H](CC(N)=O)NC(=O)c1ccc2ccccc2n1 [saquinavir]
[6]
  water solubility (compound partitioned in water, octanol/water): only partially soluble in water

## Cisplatin-D-TAT (H-[dM]GG[dR][dR][dR][dQ][dR][dR][dK][dK][dR]-NH2; also: cisplatin conjugate)
IGROV-1 (ovary)
  pIC50: 4.74
[5]
  pIC50: 4.45
  resistance index of IGROV-1/CDDP compared to parental IGROV-1 cell line: approximately two
  Resistance Index of IGROV-1/CDDP versus IGROV-1 cell line: 1.9
MCF-7 (breast)
  pIC50: 5.31
MRC-5 (human fibroblast)
  pIC50: 4.69
